Legend:
CD11b+CD11c+ cells = assay: Quantitative real-time PCR of cells sorted from tumors; type: in vivo, mouse
Excerpt: Total RNA from tumor and CD11c+ cells isolated from tumors with a kit sold under the tradename EASYSEP® Mouse CD11c positive selection kit II (STEMCELL Technologies, Vancouver, Canada) was extracted with a kit sold under the tradename QUICK-RNA® Miniprep Plus kit (R1058, Zymo Research, Irvine, California, United States of America). cDNA was synthesized with a High Capacity cDNA Reverse Transcription kit (4368814, Applied Biosystems, Waltham, Massachusetts, United States of America). Real-time PCR was performed with a kit containing fluorescent chemicals sold under the tradename SYBR™ (Molecular Probes, Sunnyvale, California, United States of America), i.e., the SYBR™ Green PCR Master Mix (4309155, Applied Biosystems, Waltham, Massachusetts, United States of America) and results were normalized to β-actin. Primers used: […]
Relative gene expression was calculated using the 2^−ΔΔCT approach.

[1] = test system: non-irradiated MC38 tumors; assay: MC38 two-tumor model, growth of non-irradiated tumors (abscopal effect); type: in vivo, mouse; settings: RA and IR treatment of primary tumor compared to any single treatment
Protocol: (§1) 1×10^6 MC38, B16/F1, Renca or CT26 cells were subcutaneously implanted into flanks of mice. Tumors were irradiated using a Phillips IR250 orthovoltage X-ray generator (Phillips, Amsterdam, the Netherlands) operating at 250 kV 15 mA. Subcutaneous local tumors were irradiated by shielding bodies with a cylindrical lead cover with only flank tumors exposed for radiation. ATRA (400 μg/mice/day) was administered by oral gavage for 10 days. For the two-tumor model, 1×10^6 and 0.7×10^6 MC38 cells were subcutaneously implanted into the right and left flank of mice respectively. For the tumor re-challenge assay, both the cured mice and the naive mice were re-challenged with 5×10^6 MC38 or 1×10^6 LLC cells respectively. Tumors were measured along two diameters (length and width) and depth twice weekly and volumes were calculated as length×width×depth/2. For CD8 and CD4 T cell depletion experiments, 200 μg antibodies were injected i.p. on day 0, 2, 5 and 8 after radiation. Anti-CD11b antibody was injected i.p. every two days starting 1 day before radiation. Anti-PD-L1 antibody was administered i.p. on day 0, 3, and 7 after radiation at 200 μg/mouse. Anti-IFN-γ was administered i.p. at 500 μg/mouse every 7 days. Anti-NK1.1 antibody was administered via i.p. at 25 μg/mouse every 3 days for 3 doses. Anti-GM-CSF antibody was given by i.p. injection at 250 μg/mouse every 2 days. […]

[2] = test system: CT26 (a colon cancer model); assay: CT26 tumor growth after IR and RA (ablative IR); type: in vivo, mouse; settings: IR and RA combination compared with single treatments
Protocol: (§2) 1×10^6 MC38, B16/F1, Renca or CT26 cells were subcutaneously implanted into flanks of mice. Tumors were irradiated using a Phillips IR250 orthovoltage X-ray generator (Phillips, Amsterdam, the Netherlands) operating at 250 kV 15 mA. Subcutaneous local tumors were irradiated by shielding bodies with a cylindrical lead cover with only flank tumors exposed for radiation. ATRA (400 μg/mice/day) was administered by oral gavage for 10 days. For the two-tumor model, 1×10^6 and 0.7×10^6 MC38 cells were subcutaneously implanted into the right and left flank of mice respectively. […] Tumors were measured along two diameters (length and width) and depth twice weekly and volumes were calculated as length×width×depth/2. For CD8 and CD4 T cell depletion experiments, 200 μg antibodies were injected i.p. on day 0, 2, 5 and 8 after radiation. Anti-CD11b antibody was injected i.p. every two days starting 1 day before radiation. Anti-PD-L1 antibody was administered i.p. on day 0, 3, and 7 after radiation at 200 μg/mouse. Anti-IFN-γ was administered i.p. at 500 μg/mouse every 7 days. Anti-NK1.1 antibody was administered via i.p. at 25 μg/mouse every 3 days for 3 doses. Anti-GM-CSF antibody was given by i.p. injection at 250 μg/mouse every 2 days. FTY720 was delivered via gavage at 20 μg per dose every day for 7 days. […]

MC38 cells = assay: Tumor re-challenge of cured mice with MC38 cells; type: in vivo, mouse; settings: mice cured by IR+RA, re-challenged with 5×10^6 MC38 cells
Protocol: as §1

[3] = test system: Renca (a renal cancer tumor model); assay: Renca tumor growth after IR and RA; type: in vivo, mouse; settings: IR and RA combination compared with single treatments
Protocol: as §2

[4] = test system: MC38 tumor in Rag1−/− mice; settings: ATRA 400 ug/each oral gavage daily plus X-ray 2 Gy/fraction, three consecutive days
Protocol: To further study whether T cell responses are important for the antitumor efficacy of ATRA (+) treatment, 2×10^6 MC38 cells were inoculated into the right flanks of Rag1^−/− […] mice, which are deficient of T and B cells. When the tumors reached 100-120 mm^3 in volume, Rag1^−/− mice were administered 400 ug/each ATRA daily via oral gavage followed by 2 Gy/fraction X-ray on three consecutive days. The tumor size was measured with a caliper every day and the tumor volume calculated as 0.5×length×width 2. All of the mice were sacrificed when the control group tumors reached about 2000 mm^3.

[5] = cells sorted from treated tumors
[6] = radiation and RA treatment compared to controls

Q: For `CC1=C(/C=C/C(C)=C/C=C/C(C)=C/C(=O)O)C(C)(C)CCC1` [RA, all-trans retinoic acid], which “mRNA level of TNF-α in sorted CD11b+CD11c+ cells” value (CD11b+CD11c+ cells; [5]) is on record?
A: Its value is “increased”.

Q: What about the “mRNA level of iNOS in sorted CD11b+CD11c+ cells” value (CD11b+CD11c+ cells; [5]) of the same compound?
A: The value was “increased”.

Q: And the “transcription of CXCL9 in CD11c+ cells” value (CD11b+CD11c+ cells; [6])?
A: The value was “increased significantly”.

Q: And the “transcription of CXCL10 in CD11c+ cells” value (CD11b+CD11c+ cells; [6])?
A: The value was “increased significantly”.

Q: What about the “transcription of CXCL11 in CD11c+ cells” value (CD11b+CD11c+ cells; [6]) of the same compound?
A: Its value is “increased significantly”.

Q: And the “growth of non-irradiated tumors” value [1]?
A: The value was “slower growth rate”.

Q: And the CT26 tumor growth [2]?
A: The CT26 tumor growth was “significant benefit”.

Q: And the “tumor formation after re-challenge with MC38 cells” value (MC38 cells)?
A: Its value is “did not form tumors”.

Q: What about the Renca tumor growth [3] of the same compound?
A: The Renca tumor growth was “significant benefit”.

Q: What about the “therapeutic effect on MC38 tumors in Rag1−/− mice” value [4] of the same compound?
A: Its value is “did not show any therapeutic effect”.

From patent publication US20240000741A1, “ALL-TRANS RETINOIC ACID ENHANCES RADIOTHERAPY AND OVERCOMES IMMUNE SUPPRESSION FOR CANCER THERAPY” (The University of Chicago, priority 2022, published 2024)
